From patent publication US20240269139A1, “COMPOUNDS FOR TARGETED PROTEIN DEGRADATION OF KINASES” (DANA-FARBER CANCER INSTITUTE, INC., priority 2020, published 2024)
Read-outs that look alike come from different tables or passages of the source.

Key:
Format in all cases: cell-based
[1] = biological target: T1, protein kinases (human kinome) (Homo sapiens, UniProt Q9H8X2); settings: IPPK (Q9H8X2)
T1 sequence (Q9H8X2 1-491): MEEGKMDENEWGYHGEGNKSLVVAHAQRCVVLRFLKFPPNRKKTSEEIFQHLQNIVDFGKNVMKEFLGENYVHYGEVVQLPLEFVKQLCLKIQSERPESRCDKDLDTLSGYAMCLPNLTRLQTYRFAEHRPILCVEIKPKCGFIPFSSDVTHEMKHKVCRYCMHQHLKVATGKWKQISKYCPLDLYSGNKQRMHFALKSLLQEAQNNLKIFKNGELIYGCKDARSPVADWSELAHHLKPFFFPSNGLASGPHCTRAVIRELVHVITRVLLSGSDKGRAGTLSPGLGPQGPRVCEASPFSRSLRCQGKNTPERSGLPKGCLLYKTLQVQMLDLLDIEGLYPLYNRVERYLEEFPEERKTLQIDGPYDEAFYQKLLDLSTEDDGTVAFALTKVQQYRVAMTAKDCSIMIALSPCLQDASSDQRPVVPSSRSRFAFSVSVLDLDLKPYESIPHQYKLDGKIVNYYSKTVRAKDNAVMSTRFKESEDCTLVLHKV

[2] = biological target: protein kinases (human kinome) (Homo sapiens, UniProt P06493); settings: CDK1 P06493; experiment wp131
[3] = biological target: T2, protein kinases (human kinome) (Homo sapiens, UniProt Q8IVH8); settings: for logFC: MAP4K3 Q8IVH8; for logFC MAP4K3: MAP4K3 Q81VH8
T2 sequence (Q8IVH8 1-894): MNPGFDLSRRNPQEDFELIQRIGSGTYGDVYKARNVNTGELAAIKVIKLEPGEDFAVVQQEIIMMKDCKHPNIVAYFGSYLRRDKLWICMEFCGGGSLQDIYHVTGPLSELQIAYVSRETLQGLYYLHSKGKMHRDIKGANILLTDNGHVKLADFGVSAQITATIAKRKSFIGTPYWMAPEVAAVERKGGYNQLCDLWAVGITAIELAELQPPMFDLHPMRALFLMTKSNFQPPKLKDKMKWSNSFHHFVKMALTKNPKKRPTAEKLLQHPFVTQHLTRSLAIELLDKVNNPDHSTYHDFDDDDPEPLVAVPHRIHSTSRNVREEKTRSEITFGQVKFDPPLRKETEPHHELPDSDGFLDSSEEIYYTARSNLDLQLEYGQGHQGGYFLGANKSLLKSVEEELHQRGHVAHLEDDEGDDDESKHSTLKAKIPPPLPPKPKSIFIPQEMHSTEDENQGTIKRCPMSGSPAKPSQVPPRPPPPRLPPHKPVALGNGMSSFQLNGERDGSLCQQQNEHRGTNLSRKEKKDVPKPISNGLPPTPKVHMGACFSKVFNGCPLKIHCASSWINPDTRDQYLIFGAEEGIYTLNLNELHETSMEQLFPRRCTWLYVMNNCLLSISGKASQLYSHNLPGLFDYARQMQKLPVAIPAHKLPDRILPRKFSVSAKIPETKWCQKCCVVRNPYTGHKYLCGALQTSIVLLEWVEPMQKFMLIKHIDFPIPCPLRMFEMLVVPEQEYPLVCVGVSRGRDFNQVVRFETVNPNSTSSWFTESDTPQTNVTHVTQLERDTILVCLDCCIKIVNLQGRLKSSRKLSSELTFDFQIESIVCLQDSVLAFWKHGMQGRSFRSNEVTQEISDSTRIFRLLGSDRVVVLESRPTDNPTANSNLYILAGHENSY

[4] = biological target: protein kinases (human kinome) (Homo sapiens, UniProt Q7KZI7)
[5] = biological target: protein kinases (human kinome) (Homo sapiens, UniProt P49674); settings: CSNK1E P49674; experiment wp137
protein kinases (human kinome) (Homo sapiens, UniProt P49674), sequence (P49674 whole entry): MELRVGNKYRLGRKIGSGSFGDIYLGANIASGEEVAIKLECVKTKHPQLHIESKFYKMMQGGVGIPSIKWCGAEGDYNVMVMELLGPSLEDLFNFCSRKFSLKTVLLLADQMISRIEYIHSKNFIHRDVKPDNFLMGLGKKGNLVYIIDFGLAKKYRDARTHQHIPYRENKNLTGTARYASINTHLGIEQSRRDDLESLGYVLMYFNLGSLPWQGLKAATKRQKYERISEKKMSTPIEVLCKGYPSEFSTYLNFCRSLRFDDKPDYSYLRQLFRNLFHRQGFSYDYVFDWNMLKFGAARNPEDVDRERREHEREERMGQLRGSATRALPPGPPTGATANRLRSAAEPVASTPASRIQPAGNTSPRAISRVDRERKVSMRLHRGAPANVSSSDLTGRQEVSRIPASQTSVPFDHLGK

protein kinases (human kinome) (Homo sapiens, UniProt Q7KZI7), sequence (Q7KZI7 whole entry): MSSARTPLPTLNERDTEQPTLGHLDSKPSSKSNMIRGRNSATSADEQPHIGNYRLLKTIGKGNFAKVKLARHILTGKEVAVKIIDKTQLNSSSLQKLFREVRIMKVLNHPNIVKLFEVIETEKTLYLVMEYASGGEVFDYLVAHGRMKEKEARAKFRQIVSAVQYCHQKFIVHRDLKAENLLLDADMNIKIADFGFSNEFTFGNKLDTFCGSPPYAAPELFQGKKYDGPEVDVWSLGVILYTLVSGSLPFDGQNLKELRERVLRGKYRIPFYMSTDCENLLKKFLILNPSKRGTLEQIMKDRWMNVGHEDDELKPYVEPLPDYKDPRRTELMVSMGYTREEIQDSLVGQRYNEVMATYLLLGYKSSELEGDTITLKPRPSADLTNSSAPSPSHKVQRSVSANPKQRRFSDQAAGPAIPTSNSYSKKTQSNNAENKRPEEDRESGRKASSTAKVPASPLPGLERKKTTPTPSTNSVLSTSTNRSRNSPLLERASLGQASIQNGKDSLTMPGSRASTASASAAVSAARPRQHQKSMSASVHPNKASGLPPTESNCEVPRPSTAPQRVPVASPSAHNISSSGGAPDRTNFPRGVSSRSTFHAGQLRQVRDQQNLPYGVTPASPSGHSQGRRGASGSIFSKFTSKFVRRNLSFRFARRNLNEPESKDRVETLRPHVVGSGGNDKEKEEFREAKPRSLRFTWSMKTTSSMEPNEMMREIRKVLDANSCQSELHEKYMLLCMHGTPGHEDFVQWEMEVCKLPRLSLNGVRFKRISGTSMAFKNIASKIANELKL
protein kinases (human kinome) (Homo sapiens, UniProt P06493), sequence (P06493 whole entry): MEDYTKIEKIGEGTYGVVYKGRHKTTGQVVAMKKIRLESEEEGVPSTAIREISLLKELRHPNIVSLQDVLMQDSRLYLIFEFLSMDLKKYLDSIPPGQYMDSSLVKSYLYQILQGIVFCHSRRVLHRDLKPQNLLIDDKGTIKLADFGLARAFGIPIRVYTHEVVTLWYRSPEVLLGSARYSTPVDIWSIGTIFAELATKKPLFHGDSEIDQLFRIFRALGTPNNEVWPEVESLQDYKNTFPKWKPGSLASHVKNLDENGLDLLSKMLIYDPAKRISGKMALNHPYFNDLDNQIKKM

Cc1ncsc1-c1ccc([C@H](C)NC(=O)[C@@H]2C[C@@H](O)CN2C(=O)[C@@H](NC(=O)CCOCCOCCN2CCN(c3ccc(Nc4ncc(Cl)c(Nc5ccccc5S(=O)(=O)C(C)C)n4)cc3)CC2)C(C)(C)C)cc1 [FMF.06.098.1]
logFC ([1]; experiment wp114): −0.5773 | logFC [2]: −0.3535 | logFC CDK1 [2]: −0.3535 | logFC ([3]; experiment wp108): −0.814 | logFC ([3]; experiment wp114): −0.4146 | logFC ([3]; experiment wp131): −0.7898 | logFC MAP4K3 ([3]; experiment wp108): −0.814 | logFC MAP4K3 ([3]; experiment wp114): −0.4146 | logFC MAP4K3 ([3]; experiment wp131): −0.7898

CC(C)S(=O)(=O)c1ccccc1Nc1nc(Nc2ccc(N3CCN(CCOCCNC(=O)CNc4cccc5c4C(=O)N(C4CCC(=O)NC4=O)C5=O)CC3)cc2)ncc1Cl (centres unmarked) [SK.3.91]
logFC ([1]; experiment wp103): −0.4729 | logFC ([1]; experiment wp107): −1.001 | logFC ([1]; experiment wp114): −0.7881 | logFC ([1]; experiment wp133, 4 hr): −0.4816 | logFC ([4]; MARK2 (Q7KZI7-1), experiment wp107, direction down): −0.5266 | logFC ([4]; MARK2 (Q7KZI7-1), experiment wp172, direction down): −0.6351 | logFC ([4]; MARK2 Q7KZI7-1, experiment wp107): −0.5266 | logFC ([4]; MARK2 Q7KZI7-1, experiment wp172): −0.6351 | logFC ([3]; experiment wp105): −0.571 | logFC ([3]; experiment wp107): −0.8456 | logFC ([3]; experiment wp133, 4 hr): −0.6321 | logFC ([3]; experiment wp172): −0.7962 | logFC MAP4K3 ([3]; experiment wp105): −0.571 | logFC MAP4K3 ([3]; experiment wp107): −0.8456 | logFC MAP4K3 ([3]; experiment wp133, 4 hr): −0.6321 | logFC MAP4K3 ([3]; experiment wp172): −0.7962

CC(C)S(=O)(=O)c1ccccc1Nc1nc(Nc2ccc(N3CCN(CCOCCOCCNC(=O)CNc4cccc5c4C(=O)N(C4CCC(=O)NC4=O)C5=O)CC3)cc2)ncc1Cl (centres unmarked) [TL12.186]
logFC ([1]; experiment wp131): −0.6311 | logFC [5]: −0.4411 | logFC CSNK1E [5]: −0.4411 | logFC ([3]; experiment wp131): −0.6275 | logFC ([3]; experiment wp137): −0.3997 | logFC MAP4K3 ([3]; experiment wp131): −0.6275 | logFC MAP4K3 ([3]; experiment wp137): −0.3997
